Reference: patent US12622898B2, “Methods and compositions for improving bone marrow hematopoietic functions” (SUN YAT-SEN UNIVERSITY, priority 2019, dated 2026)

Assays:
[1] = system: Pdk3 expression in HSPCs; test: Pdk3 mRNA levels and immunoblotting in HSCs treated with inhibitors; format: cell-based, mouse
Description: The same number of cells from each population to be analyzed were sorted into PBS with 2% FBS. The cells then were washed with PBS and Lysised by RIPA. Equal amounts of protein extracts were fractionated by 12.5% SDS-PAGE and transferred to a PVDF membrane (IPVH00010, Merck Millipore). After blocked with 5% non-fat milk in Tris-buffered saline with Tween-20 (TBST, pH 7.6) for 1 h at room temperature, the membranes were incubated with primary antibodies anti-phospho-PDHE1-A type I (Ser293) (rabbit, 1:1000, ABS204, Merck Millipore), anti-Sphk2 (rabbit, 1:1000, 17096, Proteintech), anti-PDK3 (rabbit, 1:1000, 4970s, Proteintech), or anti-βactin (rabbit, 1:1000, 2118, Cell Signaling Technology), or with primary antibodies anti-PDK3 (rabbit, 1:1000, 12215, Proteintech), anti-β-actin (rabbit, 1:1000, 4970s, Cell Signaling Technology), overnight at 4° C. and then incubated with secondary antibodies (rabbit, 1:10,000, W401B, Promega) for 1 h at room temperature, which was detected by exposure to x-ray film, or by digital imaging with a charge-coupled device camera system (Odyssey Fc). The images shown are representative of images from at least three experiments.

[2] = system: HSPCs from Sphk2 deficient mice; test: DCA treatment of Sphk2 deficient and control mice; format: in vivo, mouse; details: Sphk2 deficient mice treated for 14 days, vs vehicle treated littermates
Source text: B6N.129S6-Sphk1tm1Rlp/J (Sphk1Δ/Δ) and B6N.129S6-Sphk2tm1Rlp/J (Sphk2Δ/Δ) mice were obtained from the Jackson Laboratory. To achieve tissue-specific deletion of Sphk2, the Sphk2^flox/flox mice were crossed with Vav-Cre transgenic mice. Sphk2^flox/flox mice was constructed by Cyagen Biosciences Inc. Briefly, linearized targeting vector was electroporated into embryonic stem (ES) cells and positive clones were identified by Southern blotting and injected into C57BL/6 blastocysts followed by chimera production to obtain germline transmission. The Frt-flanked Neo cassette was subsequently removed by mating with Flpe mice. 2-month-old mice or more than 20-month old for aging we used as indicated. 5 FU (Sigma-Aldrich) was injected once or once a week for survival curve as indicated in the tail vein at 150 μg/g body weight. Sphk2 inhibitor ABC294640 (Target Molecule Corp T6750) and PDK inhibitor Sodium dichloroacetate (DCA) (Selleck Chemicals S8615) were intraperitoneal injected at 25 mg/kg. […] Animals were randomly included in the experiments according to genotyping results as a mix of male and female. All animal experiments were performed according to protocols approved by the institutional animal care and use committee.
For phenotype analysis and hematopoietic purification, hematopoietic cells were harvested from bone marrow (femur and tibia). For cell surface phenotyping, a lineage cocktail (Lin, phycoerythrin (PE)-Cy5) was used, including anti-CD3 (145-2C11), anti-CD4 (RM4-5), anti-CD8 (53-6.7), anti-Mac-1 (M1/70), anti-Gr1 (RB6-8C5), anti-B220 (RA3-6B2), anti-IgM (11/41) and anti-TER119 (TER-119) (100 ng antibody cocktail per million bone marrow cells, Biolegend). Monoclonal antibodies to SCA1 (D7, Biolegend), c-KIT (2B8, Biolegend), FLK2 (A2F10, Biolegend), CD34 (RAM34, eBioscience), CD48 (HM48-1, Biolegend), CD41 (MWReg30, eBioscience), CD150 (TC15-12F12.2, BioLegend), CD16/32 (93, Biolegend), IL-7R (A7R34, Biolegend) (all used as 50 ng per million bone marrow cells) were also used where indicated. […]

Compound	Pdk3 expression in HSPCs [1]	HSPC numbers ([2]; 25 mg/kg intraperitoneal)	HSC quiescence [2]	ROS levels in HSPCs [2]
CCCCCCCCc1ccc(CCC(N)(CO)CO)cc1 [FTY720]	not	–	–	–
O=C([O-])C(Cl)Cl.[Na+] [DCA, Sodium dichloroacetate]	–	reduced HSPC numbers	compromised HSC quiescence	increased ROS levels
